How the values were obtained:
PDL1 [1] = assay: PDL1 expression in B16 tumors of LBH589-treated mice (flow cytometry); type: in vivo, C57BL/6 mice; conditions: 15 mg/kg IP Mon, Wed, Fri, one week, FIG. 24
Protocol: C57BL/6 mice were injected subcutaneously with 100,000 B16 cells. When tumors became palpable, treatment with 15 mg/kg LBH589 via IP injection began on a Mon, Wed, Fri schedule. After one week of treatment, mice were sacrificed, tumors harvest and analyzed by flow cytometry for PDL1 expression.

PDL1 [2] = assay: PDL1 expression by flow cytometry in melanoma cell lines treated with HDACi; type: cell-based; conditions: two murine and five human melanoma cell lines, up to 72 hours, relative to DMSO; FIG. 22
Protocol: B16, WM983A, Sk-Mel21, WM1366, WM35, and WM793 melanoma cells lines were treated with DMSO (“D”), 10 nM LBH589 (“LB”), 500 nM MGCD0103 (“MG”), or 500 nM MS275 (“MS”) for 72 hours. PDL1 expression was assessed by flow cytometry. Histograms shown are for PDL1 expression or autofluorescence (solid grey) of 10,000 cells or more.
Melanoma cell lines were treated with DMSO, 10 nM LBH589 (squares), 1.5 μM ACY1215 (triangles), 500 nM MS275 (diamonds), 500 nM CLB66 (circles), or 500 nM MGCD0103 (X). PDL1 expression at indicated time points was assessed by flow cytometry. Voltages between time point measurements was standardized using rainbow beads with standard emissions. Mean fluorescence intensity minus autofluorescencee is graphed for each time point. DMSO treatment was plotted as zero hours.
In this Example, HDACi targeting class I HDACs, but not class II, is shown to augment expression of PDL1 in melanoma cells. Two murine and five human melanoma cell lines were treated for up to 72 hours with DMSO, LBH589 (pan-HDACi), MS275 (class I inhibitor), MGCD0103 (class I inhibitor), an HDAC6 specific inhibitor, or a class IIa inhibitor (FIG. 21). […] Increased expression was noted as early as 24 hours after treatment and peaked at 72 to 96 hours post-treatment (FIG. 23).

B16 melanoma cells = assay: In vivo growth of B16 melanoma in C57BL/6 mice treated with HDAC6 inhibitors; conditions: wild type B16 melanoma cells in C57BL/6 mice, treated daily with 20 mg/kg; FIG. 7B
From the text: Pan-HDAC inhibitors (pan-HDACi) slows the proliferation and improves the immunogenicity of melanoma cells (Woods, D. M., et al. Melanoma Res (2013)). However, the non-selective nature of pan-HDACi makes the assumption of the specific participation of HDACs on these processes impossible. […] The next step was identifying if HDAC6KD would affect the growth of melanoma cells in vivo. […] A similar result was obtained in another experiment injecting wild type B16 melanoma cells into C57BL/6 mice treated daily with 20 mg/kg of the HDAC6inh Nexturastat A or Nexturastat B (FIG. 7B). The amount of PDL1 and activation of STAT3 was decreased in tumors isolated after the in vivo treatment with HDAC6inh (FIG. 7C).
These in vitro results were further supported by in vivo tumor growth studies. […] A similar outcome was identified after inoculation of HDAC6KD B16 melanoma cells in C57BL/6 mice (FIG. 14A). […] This delay in tumor growth could be a reflection of their diminished proliferation and an increase in their immunogenicity leading to improved immune recognition and clearance. These studies provide critical insights into the molecular pathways that are involved in the regulatory role of HDAC6 in cell proliferation, survival, and cytokine signaling of human melanoma cells.

Multiple Myeloma = conditions: preliminary studies (Santo et al. 2012); cited from earlier work
HDAC6 = assay: Recruitment of HDAC6 to the IL-10 promoter; type: cell-based; conditions: cells treated with STAT3 inhibitor
From the text: HDAC6 is recruited to regulatory sequences in gene promoters such as MYC (Toropainen, S., et al. J Mol Biol. 400:284-294 (2010)), glucocorticoid receptor (Govindan, M. V. J Biol Chem. 285:4489-4510 (2010)) and estrogen receptor a-inducible genes (Palijan, A., et al. J Biol Chem. 284:30264-30274 (2009)). However, there is no evidence showing that HDAC6 is directly affecting the acetylation status of chromatin. […] Thus, the transcriptional regulatory effects observed for HDAC6 could be mediated by other regulatory factors recruited along with this deacetylase to specific DNA sequences. […] HDAC6 and STAT3 are recruited to the same region of the IL-10 promoter, and the recruitment of HDAC6 is impaired when cells are treated with the STAT3 inhibitor CPA-7.

B16 WT melanoma = assay: In vivo growth of B16 WT melanoma in SCID mice treated with HDAC6 inhibitor; conditions: FIG. 14A
Protocol: FIGS. 14A and 14B show differences in growth of melanoma cells after HDAC6 inhibition in altered immune systems. […] Mice were treated with antibodies to deplete CD4, CD8, and NK cells.

## Cc1[nH]c2ccccc2c1CCNCc1ccc(/C=C/C(=O)NO)cc1 [LBH589]
PDL1 [1]
  PDL1 expression in vivo: upregulates
PDL1 [2]
  PDL1 expression: dose dependent, increases

## Nc1ccccc1NC(=O)c1ccc(CNC(=O)OCc2cccnc2)cc1 [MS275]
PDL1 [2]
  PDL1 expression: dose dependent, increases

## Nc1ccccc1NC(=O)c1ccc(CNc2nccc(-c3cccnc3)n2)cc1 [MGCD0103]
PDL1 [2]
  PDL1 expression: dose dependent, increases

## CCCCN(Cc1ccc(C(=O)NO)cc1)C(=O)Nc1ccccc1 [Nexturastat A]
B16 melanoma cells
  tumor growth: delayed tumor growth

## O=C(CCCCCCNC(=O)c1cnc(N(c2ccccc2)c2ccccc2)nc1)NO [ACY1215]
Multiple Myeloma
  anti-tumor activity: important anti-tumor activity

## CPA-7
HDAC6
  recruitment of HDAC6 to the IL-10 promoter: impaired

## CCCCN(Cc1ccc(C(=O)NO)cc1)C(=O)Nc1ccc2cn[nH]c2c1 [Nexturastat B]
B16 WT melanoma
  in vivo growth of B16 WT melanoma: not significantly different
B16 melanoma cells
  tumor growth: delayed tumor growth

Source: patent publication US10576066B2, “Histone deacetylase as a modulator of PDLI expression and activity” (H. LEE MOFFITT CANCER CENTER AND RESEARCH INSTITUTE, INC., priority 2014, dated 2020)
